Results: patent US20250154547A1, “REAGENTS AND METHODS USED IN DEPROTECTION OF 3'-O-AMINO POLYNUCLEOTIDES” (priority 2023, published 2025)
Where two headings read alike, the source gives them in different places.

Key:
[1] = system: dTTP-3′-ONH2
Protocol: 1 mM solution of dTTP-3′-ONH2 (100 uL) taken in 50 mM sodium acetate (pH 5.0), 50 mM sodium phosphate (pH 6.0), 50 mM sodium phosphate (pH 7.0) or 50 mM sodium bicarbonate (pH around 8, i.e. 8.25) buffers was agitated with ThermoMixer in sealed Eppendorf tubes with 2 eq of carbonylbisphosphonate as prepared in Example 1, at 25° C. After 5 min/20 min/60 min of incubation the corresponding reaction mixture had been quenched with 5-fold excess of hydroxylamine hydrochloride in 100 μL of deionized water followed by excess of aqueous 5% acetone. Thereby, non-reacted residual dTTP-ONH2 was converted to an inert acetoxime form—dTTP-OX. The quenched reaction mixtures were analyzed with reversed-phase HPLC as shown on FIG. 3 with the following conditions: C18 Xterra 3.5 μm, 4.6×50 mm column (Waters); Buffer A: 50 mM TEAB (pH 8.5), Buffer B: 100% ACN. Gradient elution method: flow rate: 1.5 mL/min, 0-2 min—0% ACN B, 5.3 min—10% ACN, 8 min—30% ACN, 8-10 min—100% ACN.
After 5 min/20 min/60 min of incubation the corresponding reaction mixture had been quenched with 100 μL of 5% acetone in 100 mM sodium bicarbonate buffer (pH around 8, i.e. 8.25). Thereby, non-reacted residual dTTP-ONH2 was converted to an inert acetoxime form—dTTP-OX. The quenched reaction mixtures were analyzed with reversed-phase HPLC as shown on FIG. 4 with the following conditions: C18 Xterra 3.5 μm, 4.6×50 mm column (Waters); Buffer A: 50 mM TEAB (pH 8.5), Buffer B: 100% ACN. Gradient elution method: flow rate: 1.5 mL/min, 0-2 min—0% ACN B, 5.3 min—10% ACN, 8 min—30% ACN, 8-10 min—100% ACN.

[2] = system: dATP-3′-ONH2, dTTP-3′-ONH2, dCTP-3′-ONH2 or dGTP-3′-ONH2; test: Deprotection study with various 3′-O-NH2 nucleotides (96-well screening, RP-HPLC); settings: for pH of highest cleavage rate (optimal pH): 2 mM agent, 1 mM dNTP-3′-ONH2, pH 5.0-8.25
Protocol: The screening tests were performed in a 96-well plate with a reaction volume of 100 uL. Nucleoside triphosphate (dATP-3′-ONH2, dTTP-3′-ONH2, dCTP-3′-ONH2 or dGTP-3′-ONH2) were taken at 1 mM final concentration in one of four 50 mM buffers (A: sodium acetate pH 5.0, B: sodium phosphate pH 6.0, C: sodium phosphate 7.0, D: sodium bicarbonate pH around 8, i.e. 8.25). Tetrasodium carbonylbisphosphonate was added to the dNTPs solutions at 2 mM final concentration and incubated during 5, 20 or 60 mins prior to quenching with 2× concentration of hydroxylamine hydrochloride. The 96-well plate were agitated with Thermomixer at 25° C. or 40° C. The catalytic effect of magnesium on cleavage rate was also investigated. For this purpose, the same experiments were performed in the presence of 20 mM magnesium sulfate. Prior to HPLC analysis reaction mixtures were additionally quenched with acetone to convert 3′-ONH2 to acetoxime form. The samples were analyzed by RP-HPLC with gradual gradient of acetonitrile in 50 mM TEAB buffer (pH 8.5). The cleavage rate was determined based on the ratio between dNTP-3′-OH and dNTP-3′-acetoxime.
Xterra RP C18 Column: 4.6*50 mm, (3.5 um silica), Buffer A: 50 mM TEAA (pH 7.0), Buffer B: 100% ACN. Method: 0-2 min—0% ACN B, 6 min—10% ACN, 8 min—30% ACN, 8-10 min—100% ACN. Flowrate: 1.5 mL/min, no loop insert.

`CC(=O)P(=O)(O)O` [acetylphosphonic acid, Acetylphosphonic acid] was tested, and the “conversion of 3′-ONH2 to 3′-OH” value ([1]; 2 eq, 60 minutes, pH 6 or 7, 25° C.) was “about 60%”.

In the case of `O=C(P(=O)(O)O)P(=O)(O)O` [carbonylbisphosphonate, Tetrasodium Carbonylbisphosphonate], the “conversion of 3′-ONH2 to 3′-OH” value ([1]; 2 eq deprotecting agent, pH 5, 5 min, 25° C., 1 mM dTTP-3′-ONH2) is reported as 100%, the “pH of highest cleavage rate (optimal pH)” value [2] is reported as “around 5” and the “pH of highest cleavage rate (optimal pH)” value ([2]; listed as carbonyl bisphosphonate) is reported as 5.0. The “Mg (II) impact on cleavage yield” value ([2]; 20 mM magnesium sulfate) was “Magnesium markedly facilitates the cleavage yield at higher pH”.

`O=NO` [sodium nitrite, reference compound] was tested, and the “conversion to dTTP-OH” value ([1]; pH 5) was “about 80%” and the “reaction speed with oxyamines compared with carbonylbisphosphonate” value ([1]; pH 5) was “several times slower”.
